Earlier results as cited in patent US6542858B1, “Pharmacokinetic-based drug design tool and method” (Lion Bioscience AG, priority 1998, dated 2003).

Experiments:
[1] = Plasma Kinetics; mass model parameter

k21 [1]: 0.670
in vivo biotransformation: no in vivo biotransformation
absorption (in vivo): poorly absorbed
SMILES: Nc1nc2c(ncn2COC(CO)CO)c(=O)[nH]1.[Na] [Gancyclovir, 9-(1,3-dihydroxy-2-propoxymethyl)guanine, monosodium salt]
